Assay results published in PubChem BioAssay AID2060891 (Molecular Pharmacology Branch, DTP, NCI, 2025).

Test system: K98450-129-R-PDC complex spheroid growth, percent test/control
Test: Anticancer human tumor K98450-129-R-PDC patient-derived colon adenocarcinoma cell line growth inhibition [RAS]
Settings: for IC50: curve of first compound; for viability, T/C: stronger effect = lower value; active = viability on the fitted dose curve at most 10% of control; inactive = the rest
In short: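 Tumour cells grown as complex spheroids with HUVEC endothelial cells and mesenchymal stem cells, treated with RAS pathway inhibitor combinations. Each agent spans half-log steps from near clinical Cmax, or 10 microM where Cmax is unknown.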

[1] = second compound 0.00316 µM, first compound 0.0316 µM
[2] = second compound 0.00316 µM, first compound 0.1 µM
[3] = second compound 0.00316 µM, first compound 0.316 µM
[4] = second compound 0.00316 µM, first compound 1 µM
[5] = second compound 0.00316 µM, first compound 3.16 µM
[6] = second compound 0.00316 µM, first compound 10 µM
[7] = second compound 0.01 µM, first compound 0.0316 µM
[8] = second compound 0.01 µM, first compound 0.1 µM
[9] = second compound 0.01 µM, first compound 0.316 µM
[10] = second compound 0.01 µM, first compound 1 µM
[11] = second compound 0.01 µM, first compound 3.16 µM
[12] = second compound 0.01 µM, first compound 10 µM
[13] = second compound 0.0316 µM, first compound 0.0316 µM
[14] = second compound 0.0316 µM, first compound 0.1 µM
[15] = second compound 0.0316 µM, first compound 0.316 µM
[16] = second compound 0.0316 µM, first compound 1 µM
[17] = second compound 0.0316 µM, first compound 3.16 µM
[18] = second compound 0.0316 µM, first compound 10 µM
[19] = second compound 0.1 µM, first compound 0.0316 µM
[20] = second compound 0.1 µM, first compound 0.1 µM
[21] = second compound 0.1 µM, first compound 0.316 µM
[22] = second compound 0.1 µM, first compound 1 µM
[23] = second compound 0.1 µM, first compound 3.16 µM
[24] = second compound 0.1 µM, first compound 10 µM
[25] = second compound 0.316 µM, first compound 0.0316 µM
[26] = second compound 0.316 µM, first compound 0.1 µM
[27] = second compound 0.316 µM, first compound 0.316 µM
[28] = second compound 0.316 µM, first compound 1 µM
[29] = second compound 0.316 µM, first compound 3.16 µM
[30] = second compound 0.316 µM, first compound 10 µM
[31] = second compound 1 µM, first compound 0.0316 µM
[32] = second compound 1 µM, first compound 0.1 µM
[33] = second compound 1 µM, first compound 0.316 µM
[34] = second compound 1 µM, first compound 1 µM
[35] = second compound 1 µM, first compound 3.16 µM
[36] = second compound 1 µM, first compound 10 µM
[37] = second compound 0.00316 µM, first compound 0.00316 µM
[38] = second compound 0.00316 µM, first compound 0.01 µM
[39] = second compound 0.01 µM, first compound 0.00316 µM
[40] = second compound 0.01 µM, first compound 0.01 µM
[41] = second compound 0.0316 µM, first compound 0.00316 µM
[42] = second compound 0.0316 µM, first compound 0.01 µM
[43] = second compound 0.1 µM, first compound 0.00316 µM
[44] = second compound 0.1 µM, first compound 0.01 µM
[45] = second compound 0.316 µM, first compound 0.00316 µM
[46] = second compound 0.316 µM, first compound 0.01 µM
[47] = second compound 1 µM, first compound 0.00316 µM
[48] = second compound 1 µM, first compound 0.01 µM
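Note: spheroids exposed to agents for seven days before the viability readout.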
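Throughout, for viability, T/C: luminescence used as a proxy for viable cell amount.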

CC(C)NCC(C(=O)N1CCN(c2ncnc3c2C(C)CC3O)CC1)c1ccc(Cl)cc1 (stereo not given) + C=CC(=O)N1CCN(c2nc(OCC3CCCN3C)nc3c(F)c(-c4nc(N)cc(C)c4C(F)(F)F)c(Cl)cc23)C(C)C1
> 10000 nM: IC50 (second compound 0.00316 µM) | IC50 (second compound 0.01 µM) | IC50 (second compound 0.0316 µM) | IC50 (second compound 0.1 µM)
inactive: viability, T/C [1] 94.4% | viability, T/C [2] 97.7% | viability, T/C [3] 94.8% | viability, T/C [4] 93.2% | viability, T/C [5] 91.4% | viability, T/C [6] 91.2% | viability, T/C [7] 89.3% | viability, T/C [8] 81.3% | viability, T/C [9] 85.1% | viability, T/C [10] 84.6% | viability, T/C [11] 83.8% | viability, T/C [12] 85.3% | viability, T/C [13] 70% | viability, T/C [14] 63.7% | viability, T/C [15] 65.9% | viability, T/C [16] 67.3% | viability, T/C [17] 75% | viability, T/C [18] 75.5% | viability, T/C [19] 53.1% | viability, T/C [20] 52.5% | viability, T/C [21] 53.7% | viability, T/C [22] 57% | viability, T/C [23] 54.8% | viability, T/C [24] 49.6% | viability, T/C [25] 38.3% | viability, T/C [26] 42.1% | viability, T/C [27] 41% | viability, T/C [28] 43.7% | viability, T/C [29] 42.6% | viability, T/C [30] 36.4% | viability, T/C [31] 31.4% | viability, T/C [32] 32.7% | viability, T/C [33] 35.9% | viability, T/C [34] 32.1% | viability, T/C [35] 32.7% | viability, T/C [36] 29%
< 31.6 nM: IC50 (second compound 0.316 µM) | IC50 (second compound 1 µM)

CC(C)n1nc(-c2ccc3oc(N)nc3c2)c2c(N)ncnc21 + C=CC(=O)N1CCN(c2nc(OCC3CCCN3C)nc3c(F)c(-c4nc(N)cc(C)c4C(F)(F)F)c(Cl)cc23)C(C)C1
inactive: viability, T/C (second compound 0.00316 µM, first compound 0.000316 µM) 90.9% | viability, T/C (second compound 0.00316 µM, first compound 0.001 µM) 85.2% | viability, T/C [37] 87.9% | viability, T/C [38] 82.4% | viability, T/C [1] 76.5% | viability, T/C [2] 56.9% | viability, T/C (second compound 0.01 µM, first compound 0.000316 µM) 75.9% | viability, T/C (second compound 0.01 µM, first compound 0.001 µM) 78.9% | viability, T/C [39] 75% | viability, T/C [40] 70% | viability, T/C [7] 61.2% | viability, T/C [8] 51.6% | viability, T/C (second compound 0.0316 µM, first compound 0.000316 µM) 70.2% | viability, T/C (second compound 0.0316 µM, first compound 0.001 µM) 58.8% | viability, T/C [41] 62.3% | viability, T/C [42] 52.3% | viability, T/C [13] 47.1% | viability, T/C [14] 40.5% | viability, T/C (second compound 0.1 µM, first compound 0.000316 µM) 54.7% | viability, T/C (second compound 0.1 µM, first compound 0.001 µM) 51% | viability, T/C [43] 46.1% | viability, T/C [44] 44.3% | viability, T/C [19] 33.9% | viability, T/C [20] 27.2% | viability, T/C (second compound 0.316 µM, first compound 0.000316 µM) 38.8% | viability, T/C (second compound 0.316 µM, first compound 0.001 µM) 37% | viability, T/C [45] 33.1% | viability, T/C [46] 30.9% | viability, T/C [25] 25.7% | viability, T/C [26] 20.1% | viability, T/C (second compound 1 µM, first compound 0.000316 µM) 29.1% | viability, T/C (second compound 1 µM, first compound 0.001 µM) 27.5% | viability, T/C [47] 33.5% | viability, T/C [48] 25% | viability, T/C [31] 21.4% | viability, T/C [32] 17.6%
> 100 nM: IC50 (second compound 0.00316 µM) | IC50 (second compound 0.01 µM)
17.8 nM: IC50 (second compound 0.0316 µM)
< 0.316 nM: IC50 (second compound 0.316 µM) | IC50 (second compound 1 µM)
1.5 nM: IC50 (second compound 0.1 µM)

CC(Nc1ccc2c(c1)OCCn1cc(N3C(=O)OCC3C(F)F)nc1-2)C(N)=O (stereo not given) + C=CC(=O)N1CCN(c2nc(OCC3CCCN3C)nc3c(F)c(-c4nc(N)cc(C)c4C(F)(F)F)c(Cl)cc23)C(C)C1
4560 nM: IC50 (second compound 0.0316 µM)
< 31.6 nM: IC50 (second compound 0.316 µM) | IC50 (second compound 1 µM)
73.8 nM: IC50 (second compound 0.1 µM)
> 10000 nM: IC50 (second compound 0.00316 µM) | IC50 (second compound 0.01 µM)
inactive: viability, T/C [1] 92.5% | viability, T/C [2] 90.4% | viability, T/C [3] 81.7% | viability, T/C [4] 83.1% | viability, T/C [5] 70% | viability, T/C [6] 64.3% | viability, T/C [7] 85.4% | viability, T/C [8] 81.2% | viability, T/C [9] 78.5% | viability, T/C [10] 65.1% | viability, T/C [11] 59.8% | viability, T/C [12] 53.8% | viability, T/C [13] 69.5% | viability, T/C [14] 70.3% | viability, T/C [15] 62.7% | viability, T/C [16] 51.4% | viability, T/C [17] 53.7% | viability, T/C [18] 46.9% | viability, T/C [19] 53.9% | viability, T/C [20] 47.4% | viability, T/C [21] 45% | viability, T/C [22] 39% | viability, T/C [23] 32.5% | viability, T/C [24] 28.8% | viability, T/C [25] 35.4% | viability, T/C [26] 32.5% | viability, T/C [27] 31.6% | viability, T/C [28] 22.4% | viability, T/C [29] 22.9% | viability, T/C [30] 16.6% | viability, T/C [31] 28.4% | viability, T/C [32] 28.2% | viability, T/C [33] 23.5% | viability, T/C [34] 18% | viability, T/C [35] 15.3% | viability, T/C [36] 14.5%

C[C@@H](NC(=O)c1ncnc(N)c1Cl)c1ncc(C(=O)Nc2cc(C(F)(F)F)c(Cl)cn2)s1 + C=CC(=O)N1CCN(c2nc(OCC3CCCN3C)nc3c(F)c(-c4nc(N)cc(C)c4C(F)(F)F)c(Cl)cc23)C(C)C1
< 31.6 nM: IC50 (second compound 0.316 µM) | IC50 (second compound 1 µM)
> 10000 nM: IC50 (second compound 0.00316 µM) | IC50 (second compound 0.01 µM) | IC50 (second compound 0.0316 µM) | IC50 (second compound 0.1 µM)
inactive: viability, T/C [1] 101% | viability, T/C [2] 98.6% | viability, T/C [3] 102% | viability, T/C [4] 108% | viability, T/C [5] 115% | viability, T/C [6] 94% | viability, T/C [7] 91.2% | viability, T/C [8] 92.5% | viability, T/C [9] 89.5% | viability, T/C [10] 97.4% | viability, T/C [11] 94.3% | viability, T/C [12] 80.1% | viability, T/C [13] 76.3% | viability, T/C [14] 80.2% | viability, T/C [15] 76.3% | viability, T/C [16] 77.2% | viability, T/C [17] 80% | viability, T/C [18] 65.1% | viability, T/C [19] 63.8% | viability, T/C [20] 66.6% | viability, T/C [21] 59.2% | viability, T/C [22] 64.8% | viability, T/C [23] 69.9% | viability, T/C [24] 56.3% | viability, T/C [25] 44.2% | viability, T/C [26] 50.4% | viability, T/C [27] 52.1% | viability, T/C [28] 49.9% | viability, T/C [29] 57% | viability, T/C [30] 46.1% | viability, T/C [31] 37.1% | viability, T/C [32] 41.3% | viability, T/C [33] 44.6% | viability, T/C [34] 44.6% | viability, T/C [35] 49.7% | viability, T/C [36] 43.5%

O=C(c1ccc(F)c(F)c1Nc1ccc(I)cc1F)N1CC(O)([C@@H]2CCCCN2)C1 + C=CC(=O)N1CCN(c2nc(OCC3CCCN3C)nc3c(F)c(-c4nc(N)cc(C)c4C(F)(F)F)c(Cl)cc23)C(C)C1
8.9 nM: IC50 (second compound 0.1 µM)
132 nM: IC50 (second compound 0.01 µM)
active: viability, T/C [4] 2.87% | viability, T/C [9] 9.42% | viability, T/C [10] 3.09% | viability, T/C [15] 7.27% | viability, T/C [16] 2.63% | viability, T/C [21] 5.51% | viability, T/C [22] 2.39% | viability, T/C [27] 4.66% | viability, T/C [28] 2.41% | viability, T/C [33] 5% | viability, T/C [34] 2.46%
< 3.16 nM: IC50 (second compound 0.316 µM) | IC50 (second compound 1 µM)
106 nM: IC50 (second compound 0.0316 µM)
165 nM: IC50 (second compound 0.00316 µM)
inactive: viability, T/C [37] 91.1% | viability, T/C [38] 96.7% | viability, T/C [1] 87.9% | viability, T/C [2] 78.3% | viability, T/C [3] 13.7% | viability, T/C [39] 86.3% | viability, T/C [40] 77.6% | viability, T/C [7] 81.8% | viability, T/C [8] 63.1% | viability, T/C [41] 72.8% | viability, T/C [42] 64.5% | viability, T/C [13] 63.2% | viability, T/C [14] 52.5% | viability, T/C [43] 55.2% | viability, T/C [44] 47.6% | viability, T/C [19] 39% | viability, T/C [20] 22.6% | viability, T/C [45] 34.2% | viability, T/C [46] 34.2% | viability, T/C [25] 21.5% | viability, T/C [26] 10.9% | viability, T/C [47] 27.9% | viability, T/C [48] 24.1% | viability, T/C [31] 16.3% | viability, T/C [32] 9.12%
